Assay results taken from ChEMBL document CHEMBL1201862, “PubChem BioAssay data set” (2004).
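Each compound was tested at five concentrations against cells in 96-well plates for 48 hours. GI50 is the concentration that inhibits growth by half.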 Activity calls are given as the source filed them. Cut-off read from the data, not from the text of the source: active = GI50 up to about 1.1 µM and inactive = higher.

Legend:
Experiment in all cases: NCI anticancer screen, dose series, 48 h
Hs-578T = tested on: Hs-578T
T47D = tested on: T47D
CCRF-CEM = tested on: CCRF-CEM
SK-OV-3 = tested on: SK-OV-3
786-0 = tested on: 786-0
CAKI-1 = tested on: CAKI-1
RXF 393 = tested on: RXF 393
SNB-75 = tested on: SNB-75
COLO 205 = tested on: COLO 205
SF-295 = tested on: SF-295
SK-MEL-28 = tested on: SK-MEL-28
HCT-15 = tested on: HCT-15
UACC-257 = tested on: UACC-257
NCI-H226 = tested on: NCI-H226
SF-539 = tested on: SF-539
PC-3 = tested on: PC-3
UACC-62 = tested on: UACC-62
LOX IMVI = tested on: LOX IMVI
SF-268 = tested on: SF-268
BT-549 = tested on: BT-549
UO-31 = tested on: UO-31
SK-MEL-5 = tested on: SK-MEL-5
OVCAR-5 = tested on: OVCAR-5
MDA-MB-435 = tested on: MDA-MB-435
SNB-19 = tested on: SNB-19
SN12C = tested on: SN12C
ACHN = tested on: ACHN
A498 = tested on: A498
MDA-N = tested on: MDA-N
HCT-116 = tested on: HCT-116
SW-620 = tested on: SW-620
M14 = tested on: M14
NCI/ADR-RES = tested on: NCI/ADR-RES
TK-10 = tested on: TK-10
NCI-H522 = tested on: NCI-H522
RPMI-8226 = tested on: RPMI-8226
IGROV-1 = tested on: IGROV-1
MDA-MB-231 = tested on: MDA-MB-231
OVCAR-3 = tested on: OVCAR-3
DU-145 = tested on: DU-145
U-251 = tested on: U-251
SK-MEL-2 = tested on: SK-MEL-2
HT-29 = tested on: HT-29
EKVX = tested on: EKVX
NCI-H23 = tested on: NCI-H23
Malme-3M = tested on: Malme-3M
HL-60 = tested on: HL-60
HOP-92 = tested on: HOP-92
KM12 = tested on: KM12
A549 = tested on: A549
NCI-H460 = tested on: NCI-H460
MOLT-4 = tested on: MOLT-4
OVCAR-8 = tested on: OVCAR-8
HOP-62 = tested on: HOP-62
K562 = tested on: K562
OVCAR-4 = tested on: OVCAR-4
HCC 2998 = tested on: HCC 2998
MCF7 = tested on: MCF7
SR = tested on: SR

CC1=NNC(=O)C1C1CC(c2c[nH]c3ccccc23)=NN(c2ccccc2)C1=O (configuration not stated)
GI50 (Hs-578T): 29.8 µM (inactive) | GI50 (T47D): > 100 µM (inactive) | GI50 (CCRF-CEM): 28.1 µM (inactive) | GI50 (SK-OV-3): > 100 µM (inactive) | GI50 (786-0): 24.6 µM (inactive) | GI50 (CAKI-1): > 100 µM (inactive) | GI50 (RXF 393): > 100 µM (inactive) | GI50 (SNB-75): > 100 µM (inactive) | GI50 (COLO 205): > 100 µM (inactive) | GI50 (SF-295): > 100 µM (inactive) | GI50 (SK-MEL-28): > 100 µM (inactive) | GI50 (HCT-15): 37 µM | GI50 (UACC-257): > 100 µM (inactive) | GI50 (NCI-H226): > 100 µM (inactive) | GI50 (SF-539): 87.3 µM (inactive) | GI50 (PC-3): > 100 µM (inactive) | GI50 (UACC-62): > 100 µM (inactive) | GI50 (LOX IMVI): 27.6 µM (inactive) | GI50 (SF-268): > 100 µM (inactive) | GI50 (BT-549): 86.1 µM (inactive) | GI50 (UO-31): > 100 µM (inactive) | GI50 (SK-MEL-5): > 100 µM (inactive) | GI50 (OVCAR-5): > 100 µM (inactive) | GI50 (MDA-MB-435): 55.1 µM (inactive) | GI50 (SNB-19): > 100 µM (inactive) | GI50 (SN12C): 50.5 µM (inactive) | GI50 (ACHN): > 100 µM (inactive) | GI50 (A498): > 100 µM (inactive) | GI50 (MDA-N): 59.2 µM (inactive) | GI50 (HCT-116): 34.7 µM (inactive) | GI50 (SW-620): 42.3 µM (inactive) | GI50 (M14): 66.4 µM (inactive) | GI50 (NCI/ADR-RES): 83.9 µM (inactive) | GI50 (TK-10): > 100 µM (inactive) | GI50 (NCI-H522): 19.8 µM (inactive) | GI50 (RPMI-8226): 60.3 µM (inactive) | GI50 (IGROV-1): 1.62 µM (inactive) | GI50 (MDA-MB-231): > 100 µM (inactive) | GI50 (OVCAR-3): > 100 µM (inactive) | GI50 (DU-145): > 100 µM (inactive) | GI50 (U-251): 87.5 µM (inactive) | GI50 (SK-MEL-2): > 100 µM (inactive) | GI50 (HT-29): > 100 µM (inactive) | GI50 (EKVX): > 100 µM (inactive) | GI50 (NCI-H23): > 100 µM (inactive) | GI50 (Malme-3M): > 100 µM (inactive) | GI50 (HL-60): 34.7 µM (inactive) | GI50 (HOP-92): > 100 µM (inactive) | GI50 (KM12): > 100 µM (inactive) | GI50 (A549): > 100 µM (inactive) | GI50 (NCI-H460): > 100 µM (inactive) | GI50 (MOLT-4): 34 µM (inactive) | GI50 (OVCAR-8): > 100 µM (inactive) | GI50 (HOP-62): > 100 µM (inactive) | GI50 (K562): 35 µM (inactive)

CN(/N=C/c1ccccn1)C1=NCCCN1
GI50 (Hs-578T): > 100 µM (inactive) | GI50 (T47D): > 100 µM (inactive) | GI50 (CCRF-CEM): > 100 µM (inactive) | GI50 (SK-OV-3): > 100 µM (inactive) | GI50 (786-0): > 100 µM (inactive) | GI50 (CAKI-1): > 100 µM (inactive) | GI50 (RXF 393): > 100 µM (inactive) | GI50 (SNB-75): > 100 µM (inactive) | GI50 (COLO 205): > 100 µM (inactive) | GI50 (SF-295): > 100 µM (inactive) | GI50 (SK-MEL-28): > 100 µM (inactive) | GI50 (HCT-15): > 100 µM | GI50 (UACC-257): > 100 µM (inactive) | GI50 (NCI-H226): > 100 µM (inactive) | GI50 (SF-539): > 100 µM (inactive) | GI50 (PC-3): > 100 µM (inactive) | GI50 (UACC-62): > 100 µM (inactive) | GI50 (LOX IMVI): > 100 µM (inactive) | GI50 (SF-268): > 100 µM (inactive) | GI50 (BT-549): > 100 µM (inactive) | GI50 (UO-31): > 100 µM (inactive) | GI50 (SK-MEL-5): > 100 µM (inactive) | GI50 (OVCAR-5): > 100 µM (inactive) | GI50 (MDA-MB-435): > 100 µM (inactive) | GI50 (SNB-19): > 100 µM (inactive) | GI50 (OVCAR-4): > 100 µM (inactive) | GI50 (ACHN): > 100 µM (inactive) | GI50 (A498): 91.6 µM (inactive) | GI50 (MDA-N): > 100 µM (inactive) | GI50 (HCT-116): > 100 µM (inactive) | GI50 (SW-620): > 100 µM (inactive) | GI50 (M14): > 100 µM (inactive) | GI50 (NCI/ADR-RES): > 100 µM (inactive) | GI50 (TK-10): > 100 µM (inactive) | GI50 (HCC 2998): > 100 µM (inactive) | GI50 (NCI-H522): > 100 µM (inactive) | GI50 (RPMI-8226): > 100 µM (inactive) | GI50 (IGROV-1): > 100 µM (inactive) | GI50 (MDA-MB-231): > 100 µM (inactive) | GI50 (OVCAR-3): > 100 µM (inactive) | GI50 (U-251): > 100 µM (inactive) | GI50 (SK-MEL-2): > 100 µM (inactive) | GI50 (HT-29): > 100 µM (inactive) | GI50 (EKVX): > 100 µM (inactive) | GI50 (NCI-H23): > 100 µM (inactive) | GI50 (Malme-3M): > 100 µM (inactive) | GI50 (HL-60): > 100 µM (inactive) | GI50 (HOP-92): > 100 µM (inactive) | GI50 (KM12): > 100 µM (inactive) | GI50 (A549): > 100 µM (inactive) | GI50 (MCF7): > 100 µM (inactive) | GI50 (NCI-H460): > 100 µM (inactive) | GI50 (MOLT-4): > 100 µM (inactive) | GI50 (OVCAR-8): > 100 µM (inactive) | GI50 (SR): > 100 µM (inactive) | GI50 (HOP-62): > 100 µM (inactive) | GI50 (K562): > 100 µM (inactive)
